Where two headings read alike, the source gives them in different places.
What was measured:
human σ2/TMEM97 receptor = target: T1, human σ2/TMEM97 receptor (Homo sapiens, UniProt Q5BJF2); assay: Binding assay to human σ2/TMEM97 receptor ([3H]-DTG); conditions: transfected HEK-293 membranes, 10 nM [3H]-DTG, 25° C., 120 minutes; read-out: Binding σ-[…] (binding to σ2-receptor expressed as Ki)
T1 construct: expressed in transfected cells; host or cells: HEK-293
Experimental: Binding Assay to Human σ2/TMEM97 Receptor.
Transfected HEK-293 membranes (15 μg) were incubated with 10 nM [^3H]-1,3-Di-o-tolylguanidine (DTG) in assay buffer containing Tris-HCl 50 mM at pH 8.0. NSB (non-specific binding) was measured by adding 10 μM haloperidol. The binding of the test compound was measured at either one concentration (% inhibition at 1 or 10 µM) or five different concentrations to determine affinity values (Ki). Plates were incubated at 25° C. for 120 minutes. After the incubation period, the reaction mix was transferred to MultiScreen HTS, FC plates (Millipore), filtered and washed 3 times with ice-cold 10 mM Tris-HCL (pH 8.0). Filters were dried and counted at approximately 40% efficiency in a MicroBeta scintillation counter (Perkin-Elmer) using EcoScint liquid scintillation cocktail.

human σ1 receptor = target: T2, human σ1 receptor (Homo sapiens, UniProt Q99720); assay: Human σ1 receptor radioligand assay ([3H](+)-pentazocine); format: binding
T2 construct: expressed in transfected cells; host or cells: HEK-293
Experimental: Human σ1 Receptor Radioligand Assay
NBS (non-specific binding) was measured by adding 10 μM haloperidol. The binding of the test compound was measured at either one concentration (% inhibition at 1 or 10 µM) or five different concentrations to determine affinity values (Ki). Plates were incubated at 37° C. for 120 minutes. After the incubation period, the reaction mix was then transferred to MultiScreen HTS, FC plates (Millipore), filtered and plates were washed 3 times with ice-cold 10 mM Tris-HCL (pH7.4). Filters were dried and counted at approximately 40% efficiency in a MicroBeta scintillation counter (Perkin-Elmer) using EcoScint liquid scintillation cocktail.

[1] = transfected HEK-293 membranes, 5 nM [3H](+)-pentazocine, 37° C., 120 minutes, read-out: Binding σ-[…] (binding to σ1-receptor expressed as Ki)

T2 sequence (Q99720 whole entry): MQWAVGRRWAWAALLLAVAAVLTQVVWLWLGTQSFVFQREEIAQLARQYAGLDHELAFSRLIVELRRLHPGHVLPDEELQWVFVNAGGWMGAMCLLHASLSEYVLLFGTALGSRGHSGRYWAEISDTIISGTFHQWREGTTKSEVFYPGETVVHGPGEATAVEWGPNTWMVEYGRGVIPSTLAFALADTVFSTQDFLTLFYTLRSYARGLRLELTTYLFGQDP
T1 sequence (Q5BJF2 whole entry): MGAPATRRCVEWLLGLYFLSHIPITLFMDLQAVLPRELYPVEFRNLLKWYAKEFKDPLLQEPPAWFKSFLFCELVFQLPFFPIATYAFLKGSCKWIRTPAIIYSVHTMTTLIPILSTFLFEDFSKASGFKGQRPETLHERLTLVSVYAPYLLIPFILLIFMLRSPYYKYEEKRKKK

Cc1ccc2c(n1)C(C)(C)CN2C(=O)NC1CCN(Cc2ccccc2)CC1 [Example 1, N-(1-benzylpiperidin-4-yl)-3,3,5-trimethyl-2,3-dihydro-1H-pyrrolo[3,2-b]pyridine-1-carboxamide]
Ki (human σ2/TMEM97 receptor): > 1000 nM | Ki (human σ1 receptor; [1]): < 100 nM

Cc1ccc2c(n1)C(C)(C)CN2C(=O)NCC(c1ccccc1)N(C)C (stereo not drawn) [Example 2, N-(2-(dimethylamino)-2-phenylethyl)-3,3,5-trimethyl-2,3-dihydro-1H-pyrrolo[3,2-b]pyridine-1-carboxamide]
Ki (human σ2/TMEM97 receptor): > 1000 nM | Ki (human σ1 receptor): < 100 nM

CN(C)C(CNC(=O)N1CC(C)(C)c2nc(C(F)(F)F)ccc21)c1ccccc1 (stereo not drawn) [Example 3, N-(2-(dimethylamino)-2-phenylethyl)-3,3-dimethyl-5-(trifluoromethyl)-2,3-dihydro-1H-pyrrolo[3,2-b]pyridine-1-carboxamide]
Ki (human σ2/TMEM97 receptor): > 1000 nM | Ki (human σ1 receptor; [1]): 100 to 500 nM

Cc1ccc2c(n1)C(C)(C)CN2C(=O)NC[C@@H](c1ccccc1)N(C)C [Example 4, (R)—N-(2-(dimethylamino)-2-phenylethyl)-3,3,5-trimethyl-2,3-dihydro-1H-pyrrolo[3,2-b]pyridine-1-carboxamide]
Ki (human σ2/TMEM97 receptor): > 1000 nM | Ki (human σ1 receptor): < 100 nM

CN(C)[C@@H](CNC(=O)N1CC(C)(C)c2ncccc21)c1ccccc1 [Example 5, (R)—N-(2-(dimethylamino)-2-phenylethyl)-3,3-dimethyl-2,3-dihydro-1H-pyrrolo[3,2-b]pyridine-1-carboxamide]
Ki (human σ2/TMEM97 receptor): > 1000 nM | Ki (human σ1 receptor; [1]): 100 to 500 nM

Cc1ccc2c(n1)CCN2C(=O)NC[C@@H](c1ccccc1)N(C)C [Example 6, (R)—N-(2-(dimethylamino)-2-phenylethyl)-5-methyl-2,3-dihydro-1H-pyrrolo[3,2-t]pyridine-1-carboxamide]
Ki (human σ2/TMEM97 receptor): > 1000 nM | Ki (human σ1 receptor; [1]): 500 to 1000 nM

Cc1ccc2c(n1)C(C)(C)CN2C(=O)NCC(c1ccccc1)N1CCCC1 (stereo not drawn) [Example 7, 3,3,5-trimethyl-N-(2-phenyl-2-(pyrrolidin-1-yl)ethyl)-2,3-dihydro-1H-pyrrolo[3,2-b]pyridine-1-carboxamide]
Ki (human σ2/TMEM97 receptor): > 1000 nM | Ki (human σ1 receptor; [1]): 100 to 500 nM

Cc1ccc2c(n1)C(C)(C)CN2C(=O)N(C)C[C@@H](c1ccccc1)N(C)C [Example 8, (R)—N-(2-(dimethylamino)-2-phenylethyl)-N,3,3,5-tetramethyl-2,3-dihydro-1H-pyrrolo[3,2-b]pyridine-1-carboxamide]
Ki (human σ2/TMEM97 receptor): > 1000 nM | Ki (human σ1 receptor; [1]): 500 to 1000 nM

CCN(CC)C(CNC(=O)N1CC(C)(C)c2nc(C)ccc21)c1ccccc1 (stereo not drawn) [Example 9, N-(2-(diethylamino)-2-phenylethyl)-3,3,5-trimethyl-2,3-dihydro-1H-pyrrolo[3,2-b]pyridine-1-carboxamide]
Ki (human σ2/TMEM97 receptor): > 1000 nM | Ki (human σ1 receptor; [1]): < 100 nM

Cc1ccc2c(n1)C(C)(C)CN2C(=O)N1CCN(Cc2ccccc2)CC1 [Example 10, (4-benzylpiperazin-1-yl)(3,3,5-trimethyl-2,3-dihydro-1H-pyrrolo[3,2-b]pyridin-1-yl)methanone]
Ki (human σ2/TMEM97 receptor): > 1000 nM | Ki (human σ1 receptor; [1]): 100 to 500 nM

Cc1ccc2c(n1)C(C)(C)CN2C(=O)N1CCC(N(C)Cc2ccccc2)CC1 [Example 11, (4-(benzyl(methyl)amino)piperidin-1-yl)(3,3,5-trimethyl-2,3-dihydro-1H-pyrrolo[3,2-b]pyridin-1-yl)methanone]
Ki (human σ2/TMEM97 receptor): < 100 nM | Ki (human σ1 receptor; [1]): 100 to 500 nM

Cc1ccc2c(n1)C(C)(C)CN2C(=O)NC[C@H](Cc1ccccc1)N(C)C [Example 12, (S)—N-(2-(dimethylamino)-3-phenylpropyl)-3,3,5-trimethyl-2,3-dihydro-1H-pyrrolo[3,2-b]pyridine-1-carboxamide]
Ki (human σ2/TMEM97 receptor): > 1000 nM | Ki (human σ1 receptor): < 100 nM

COc1ccc(C(CNC(=O)N2CC(C)(C)c3nc(C)ccc32)N(C)C)cc1 (stereo not drawn) [Example 13, N-(2-(dimethylamino)-2-(4-methoxyphenyl)ethyl)-3,3,5-trimethyl-2,3-dihydro-1H-pyrrolo[3,2-b]pyridine-1-carboxamide]
Ki (human σ2/TMEM97 receptor): > 1000 nM | Ki (human σ1 receptor): < 100 nM

CN(C)[C@@H](CNC(=O)N1CC(C)(C)c2ncc(Cl)cc21)c1ccccc1 [Example 14, (R)-6-chloro-N-(2-(dimethylamino)-2-phenylethyl)-3,3-dimethyl-2,3-dihydro-1H-pyrrolo[3,2-b]pyridine-1-carboxamide]
Ki (human σ2/TMEM97 receptor): > 1000 nM | Ki (human σ1 receptor; [1]): 100 to 500 nM

CN(C)[C@@H](CNC(=O)N1CC(C)(C)c2nc(C#N)ccc21)c1ccccc1 [Example 15, (R)-5-cyano-N-(2-(dimethylamino)-2-phenylethyl)-3,3-dimethyl-2,3-dihydro-1H-pyrrolo[3,2-b]pyridine-1-carboxamide]
Ki (human σ2/TMEM97 receptor): > 1000 nM | Ki (human σ1 receptor): < 100 nM

Cc1nc2c(cc1F)N(C(=O)NC[C@@H](c1ccccc1)N(C)C)CC2(C)C [Example 16, (R)—N-(2-(dimethylamino)-2-phenylethyl)-6-fluoro-3,3,5-trimethyl-2,3-dihydro-1H-pyrrolo[3,2-b]pyridine-1-carboxamide]
Ki (human σ2/TMEM97 receptor): > 1000 nM | Ki (human σ1 receptor; [1]): < 100 nM

COc1ccc2c(n1)C(C)(C)CN2C(=O)NC[C@@H](c1ccccc1)N(C)C [Example 17, (R)—N-(2-(dimethylamino)-2-phenylethyl)-5-methoxy-3,3-dimethyl-2,3-dihydro-1H-pyrrolo[3,2-b]pyridine-1-carboxamide]
Ki (human σ2/TMEM97 receptor): > 1000 nM | Ki (human σ1 receptor; [1]): < 100 nM

Cc1ccc2c(n1)C(C)(C)CN2C(=O)N[C@@H]1CCN(Cc2ccccc2)C1 [Example 18, (R)—N-(1-benzylpyrrolidin-3-yl)-3,3,5-trimethyl-2,3-dihydro-1H-pyrrolo[3,2-b]pyridine-1-carboxamide]
Ki (human σ2/TMEM97 receptor): 100 to 500 nM | Ki (human σ1 receptor; [1]): 100 to 500 nM

Cc1ccc2c(n1)C(C)(C)CN2C(=O)NCC(c1ccccc1F)N(C)C (stereo not drawn) [Example 19, N-(2-(dimethylamino)-2-(2-fluorophenyl)ethyl)-3,3,5-trimethyl-2,3-dihydro-1H-pyrrolo[3,2-b]pyridine-1-carboxamide]
Ki (human σ2/TMEM97 receptor): > 1000 nM | Ki (human σ1 receptor; [1]): 100 to 500 nM

CN(C)[C@@H](CNC(=O)N1CC(C)(C)c2ncc(F)cc21)c1ccccc1 [Example 20, (R)—N-(2-(dimethylamino)-2-phenylethyl)-6-fluoro-3,3-dimethyl-2,3-dihydro-1H-pyrrolo[3,2-b]pyridine-1-carboxamide]
Ki (human σ2/TMEM97 receptor): > 1000 nM | Ki (human σ1 receptor; [1]): < 100 nM

Cc1ccc2c(n1)C(C)(C)CN2C(=O)N[C@H]1CCN(Cc2ccccc2)C1 [Example 21, (S)—N-(1-benzylpyrrolidin-3-yl)-3,3,5-trimethyl-2,3-dihydro-1H-pyrrolo[3,2-b]pyridine-1-carboxamide]
Ki (human σ2/TMEM97 receptor): > 1000 nM | Ki (human σ1 receptor; [1]): 100 to 500 nM

Cc1ccc2c(n1)C(C)(C)CN2C(=O)NC1CCN(Cc2ccc(F)cc2)CC1 [Example 22, N-(1-(4-fluorobenzyl)piperidin-4-yl)-3,3,5-trimethyl-2,3-dihydro-1H-pyrrolo[3,2-b]pyridine-1-carboxamide]
Ki (human σ2/TMEM97 receptor): 500 to 1000 nM | Ki (human σ1 receptor; [1]): < 100 nM

Cc1ccc2c(n1)C(C)(C)CN2C(=O)NC1CCN(Cc2cccc(C#N)c2)CC1 [Example 23, N-(1-(3-cyanobenzyl)piperidin-4-yl)-3,3,5-trimethyl-2,3-dihydro-1H-pyrrolo[3,2-b]pyridine-1-carboxamide]
Ki (human σ2/TMEM97 receptor): > 1000 nM | Ki (human σ1 receptor; [1]): 100 to 500 nM

Cc1ccc2c(n1)C(C)(C)CN2C(=O)NC1CCN(Cc2ccc(C#N)cc2)CC1 [Example 24, N-(1-(4-cyanobenzyl)piperidin-4-yl)-3,3,5-trimethyl-2,3-dihydro-1H-pyrrolo[3,2-b]pyridine-1-carboxamide]
Ki (human σ2/TMEM97 receptor): > 1000 nM | Ki (human σ1 receptor; [1]): < 100 nM

Cc1ccc2c(n1)C(C)(C)CN2C(=O)NC1CCN(CCC(C)C)CC1 [Example 25, N-(1-isopentylpiperidin-4-yl)-3,3,5-trimethyl-2,3-dihydro-1H-pyrrolo[3,2-b]pyridine-1-carboxamide]
Ki (human σ2/TMEM97 receptor): 100 to 500 nM | Ki (human σ1 receptor; [1]): < 100 nM

Cc1ccc2c(n1)C(C)(C)CN2C(=O)NC1CCN(Cc2cccc(F)c2)CC1 [Example 26, N-(1-(3-fluorobenzyl)piperidin-4-yl)-3,3,5-trimethyl-2,3-dihydro-1H-pyrrolo[3,2-b]pyridine-1-carboxamide]
Ki (human σ2/TMEM97 receptor): > 1000 nM | Ki (human σ1 receptor; [1]): < 100 nM

Cc1ccc2c(n1)C(C)(C)CN2C(=O)NC1CCN(CCc2ccccc2)CC1 [Example 27, 3,3,5-trimethyl-N-(1-phenethylpiperidin-4-yl)-2,3-dihydro-1H-pyrrolo[3,2-b]pyridine-1-carboxamide]
Ki (human σ2/TMEM97 receptor): < 100 nM | Ki (human σ1 receptor): 100 to 500 nM

CCOCCN1CCC(NC(=O)N2CC(C)(C)c3nc(C)ccc32)CC1 [Example 28, N-(1-(2-ethoxyethyl)piperidin-4-yl)-3,3,5-trimethyl-2,3-dihydro-1H-pyrrolo[3,2-b]pyridine-1-carboxamide]
Ki (human σ2/TMEM97 receptor): > 1000 nM | Ki (human σ1 receptor; [1]): 100 to 500 nM

CC1(C)CN(C(=O)NC2CCN(Cc3ccccc3)CC2)c2ccc(C#N)nc21 [Example 30, N-(1-benzylpiperidin-4-yl)-5-cyano-3,3-dimethyl-2,3-dihydro-1H-pyrrolo[3,2-b]pyridine-1-carboxamide]
Ki (human σ1 receptor; [1]): < 100 nM
